From ChEMBL document CHEMBL3046427, “Wound healing phytoconstituents from seed kernel of Entada pursaetha DC. and their molecular docking studies with glycogen synthase kinase 3-” (2012)
The source made the active and inactive calls. No cut-off for these calls is given here.

What was measured:
Rattus norvegicus [1] = assay: Wound healing activity in Rattus norvegicus Swiss albino Wistar (rat) dead space wound model assessed as tissue breaking strength at 15 mg/ml, po measured on day 10 post-wounding (reference value: 260.83 +/- 14.05 g); assay type: functional
Rattus norvegicus [2] = assay: Wound healing activity in Rattus norvegicus Swiss albino Wistar (rat) excision wound model assessed as wound closure at 0.2% w/v administered topically measured on day 16 post-wounding (reference value: 83.31 +/- 1.06%); assay type: functional
Rattus norvegicus [3] = assay: Wound healing activity in Rattus norvegicus Swiss albino Wistar (rat) excision wound model assessed as wound closure at 0.2% w/v administered topically measured on day 8 post-wounding (reference value: 48.75 +/- 1.34%); assay type: functional
Rattus norvegicus [4] = assay: Wound healing activity in Rattus norvegicus Swiss albino Wistar (rat) excision wound model assessed as time of epithelialization at 0.2% w/v administered topically (reference value: 24 +/- 0.26 days); assay type: functional
Rattus norvegicus [5] = assay: Wound healing activity in Rattus norvegicus Swiss albino Wistar (rat) excision wound model assessed as wound closure at 0.2% w/v administered topically measured on day 4 post-wounding (reference value: 25.59 +/- 1.79%); assay type: functional
Rattus norvegicus [6] = assay: Wound healing activity in Rattus norvegicus Swiss albino Wistar (rat) excision wound model assessed as wound closure at 0.2% w/v administered topically measured on day 12 post-wounding (reference value: 69.04 +/- 1.05%); assay type: functional
Rattus norvegicus [7] = assay: Wound healing activity in Rattus norvegicus Swiss albino Wistar (rat) dead space wound model assessed as hydroxyproline content per 100 g tissue at 15 mg/ml, po measured on day 10 post-wounding by Neuman-Logan method (reference value: 1369.67 +/- 10.54 ug); assay type: functional
Rattus norvegicus [8] = assay: Wound healing activity in Rattus norvegicus Swiss albino Wistar (rat) dead space wound model assessed as granular tissue weight per 100 g tissue at 15 mg/ml, po measured on day 10 post-wounding (reference value: 31 +/- 0.93 mg); assay type: functional
Rattus norvegicus [9] = assay: Wound healing activity in Rattus norvegicus Swiss albino Wistar (rat) incision wound model assessed as skin breaking strength at 15 mg/ml, po measured on day 10 post-wounding by tensiometric analysis (reference value: 400 +/- 28.87 g); assay type: functional
Rattus norvegicus [10] = assay: Wound healing activity in po dosed Rattus norvegicus Swiss albino Wistar (rat) incision wound model assessed as skin breaking strength measured on day 10 post-wounding by tensiometric analysis (reference value: 400 +/- 28.87 g); assay type: functional
Rattus norvegicus [11] = assay: Wound healing activity in Rattus norvegicus Swiss albino Wistar (rat) dead space wound model assessed as tissue breaking strength at 5 mg/ml, po measured on day 10 post-wounding (reference value: 260.83 +/- 14.05 g); assay type: functional
Rattus norvegicus [12] = assay: Wound healing activity in Rattus norvegicus Swiss albino Wistar (rat) dead space wound model assessed as hydroxyproline content per 100 g tissue at 5 mg/ml, po measured on day 10 post-wounding by Neuman-Logan method (reference value: 1369.67 +/- 10.54 ug); assay type: functional
Rattus norvegicus [13] = assay: Wound healing activity in Rattus norvegicus Swiss albino Wistar (rat) incision wound model assessed as skin breaking strength at 5 mg/ml, po measured on day 10 post-wounding by tensiometric analysis (reference value: 400 +/- 28.87 g); assay type: functional
Rattus norvegicus [14] = assay: Wound healing activity in Rattus norvegicus Swiss albino Wistar (rat) dead space wound model assessed as granular tissue weight per 100 g tissue at 5 mg/ml, po measured on day 10 post-wounding (reference value: 31 +/- 0.93 mg); assay type: functional
Rattus norvegicus [15] = assay: Wound healing activity in Rattus norvegicus Swiss albino Wistar (rat) dead space wound model assessed as granular tissue weight per 100 g tissue at 10 mg/ml, po measured on day 10 post-wounding (reference value: 31 +/- 0.93 mg); assay type: functional
Rattus norvegicus [16] = assay: Wound healing activity in Rattus norvegicus Swiss albino Wistar (rat) dead space wound model assessed as increase in collagenation of granulation tissue at 10 mg/ml, po measured on day 10 post-wounding by histological analysis relative to control; assay type: functional, organism-based
Rattus norvegicus [17] = assay: Wound healing activity in Rattus norvegicus Swiss albino Wistar (rat) dead space wound model assessed as hydroxyproline content per 100 g tissue at 10 mg/ml, po measured on day 10 post-wounding by Neuman-Logan method (reference value: 1369.67 +/- 10.54 ug); assay type: functional
Rattus norvegicus [18] = assay: Wound healing activity in Rattus norvegicus Swiss albino Wistar (rat) incision wound model assessed as skin breaking strength at 10 mg/ml, po measured on day 10 by tensiometric analysis (reference value: 400 +/- 28.87 g); assay type: functional
Rattus norvegicus [19] = assay: Wound healing activity in Rattus norvegicus Swiss albino Wistar (rat) dead space wound model assessed as decrease in macrophages at 10 mg/ml, po measured on day 10 post-wounding by histological analysis relative to control; assay type: functional, organism-based
Rattus norvegicus [20] = assay: Wound healing activity in Rattus norvegicus Swiss albino Wistar (rat) dead space wound model assessed as tissue breaking strength at 10 mg/ml, po measured on day 10 post-wounding (reference value: 260.83 +/- 14.05 g); assay type: functional

O=C(O)Cc1cc(O)ccc1O[C@@H]1O[C@H](CO)[C@@H](O)[C@H](O)[C@H]1O [PHASEOLOIDIN]
Activity (Rattus norvegicus [1]): 450.17 g
Activity (Rattus norvegicus [2]): 88.5%
Activity (Rattus norvegicus [3]): 52.15%
Time (Rattus norvegicus [4]): 21.16 days
Activity (Rattus norvegicus [5]): 27.08%
Activity (Rattus norvegicus [6]): 70.08%
Activity (Rattus norvegicus [7]): 1690.33 µg
Activity (Rattus norvegicus [8]): 43.92 mg
Activity (Rattus norvegicus [9]): 490.33 g

NC(=O)N/N=C/c1ccc([N+](=O)[O-])o1 [NITROFURAZONE]
Activity (Rattus norvegicus [2]): 97.64%
Activity (Rattus norvegicus [3]): 80.7%
Time (Rattus norvegicus [4]): 16.33 days
Activity (Rattus norvegicus [5]): 41.46%
Activity (Rattus norvegicus [6]): 91.32%
Activity (Rattus norvegicus [10]): 683.33 g

CS/C=C/C(=O)NCCO [ENTADAMIDE]
Activity (Rattus norvegicus [11]): 463.33 g
Activity (Rattus norvegicus [12]): 1891.17 µg
Activity (Rattus norvegicus [13]): 533.5 g
Activity (Rattus norvegicus [2]): 92.22%
Activity (Rattus norvegicus [3]): 57.32%
Time (Rattus norvegicus [4]): 19.92 days
Activity (Rattus norvegicus [5]): 28.28%
Activity (Rattus norvegicus [14]): 50.75 mg
Activity (Rattus norvegicus [6]): 71.27%

CC1(C)CC[C@]2(C(=O)O)[C@H](O)[C@H](O)[C@]3(C)C(=CC[C@@H]4[C@@]5(C)CC[C@H](O)C(C)(C)[C@@H]5CC[C@]43C)[C@@H]2C1 [ENTAGENIC ACID]
Activity (Rattus norvegicus [15]): 53.11 mg
Activity (Rattus norvegicus [16]): Active
Activity (Rattus norvegicus [2]): 96.08%
Activity (Rattus norvegicus [3]): 65.21%
Time (Rattus norvegicus [4]): 18.08 days
Activity (Rattus norvegicus [17]): 2001.33 µg
Activity (Rattus norvegicus [5]): 33.39%
Activity (Rattus norvegicus [18]): 655.67 g
Activity (Rattus norvegicus [6]): 76.38%
Activity (Rattus norvegicus [19]): Active
Activity (Rattus norvegicus [20]): 549.83 g
